The source made the active and inactive calls. No cut-off for these calls is given here.
Columns and labels:
[1] = biological target: T1, Ferroportin (Mus musculus) (UniProt Q9JHI9); experiment: Inhibition of ferroportin in mouse J774 cells assessed as induce ferroportin ubiquitination and degradation at […] incubated for 10 mins by immunoprecipitation assay; assay type: cell-based
T1 sequence (whole entry): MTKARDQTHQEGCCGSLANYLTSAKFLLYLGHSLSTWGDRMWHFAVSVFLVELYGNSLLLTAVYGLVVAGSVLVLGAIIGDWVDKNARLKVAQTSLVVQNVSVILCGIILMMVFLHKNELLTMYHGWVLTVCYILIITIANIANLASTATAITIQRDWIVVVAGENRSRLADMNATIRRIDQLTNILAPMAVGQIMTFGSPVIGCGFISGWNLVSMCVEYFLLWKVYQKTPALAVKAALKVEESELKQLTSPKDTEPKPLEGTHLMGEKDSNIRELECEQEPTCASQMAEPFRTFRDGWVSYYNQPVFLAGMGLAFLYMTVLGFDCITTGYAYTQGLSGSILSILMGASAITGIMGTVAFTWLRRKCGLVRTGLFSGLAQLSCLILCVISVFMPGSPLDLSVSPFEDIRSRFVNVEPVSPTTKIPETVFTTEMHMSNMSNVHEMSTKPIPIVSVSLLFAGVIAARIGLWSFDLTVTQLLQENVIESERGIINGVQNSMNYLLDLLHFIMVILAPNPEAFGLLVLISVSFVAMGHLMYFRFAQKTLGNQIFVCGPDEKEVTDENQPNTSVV

[2] = biological target: T1, Ferroportin (Mus musculus); experiment: Inhibition of ferroportin in mouse J774 cells assessed as induce ferroportin ubiquitination and degradation at […] incubated for 120 mins by immunoprecipitation assay; assay type: cell-based
[3] = tested on: Mus musculus; experiment: Induction of hypoferremia in wild type C57BL/6 mouse assessed as decrease in serum iron levels at 10 mg/kg, po measured after 3 hrs post dose; assay type: functional; parameters: scale not given: the % may be the effect or the level left
[4] = tested on: Mus musculus; experiment: Induction of hypoferremia in wild type C57BL/6 mouse assessed as decrease in serum iron levels at 30 mg/kg, po measured after 3 hrs post dose; assay type: functional; parameters: scale not given: the % may be the effect or the level left
[5] = tested on: Mus musculus; experiment: Induction of hypoferremia in wild type C57BL/6 mouse assessed as decrease in serum iron levels at 100 mg/kg, po measured after 3 hrs post dose; assay type: functional; parameters: scale not given: the % may be the effect or the level left
[6] = tested on: Rattus norvegicus; experiment: Prevention of iron absorption in anemic Wistar rat model of iron absorption assessed as inhibition of increase in serum iron at 10 mg/kg, po pre-dosed 1 hr before ferrous sulfate dosing and measured 3 hours after iron dosing; assay type: functional
[7] = tested on: Rattus norvegicus; experiment: Prevention of iron absorption in anemic Wistar rat model of iron absorption assessed as inhibition of increase in serum iron at 30 mg/kg, po pre-dosed 1 hr before ferrous sulfate dosing and measured 3 hours after iron dosing; assay type: functional
[8] = tested on: Rattus norvegicus; experiment: Prevention of iron absorption in anemic Wistar rat model of iron absorption assessed as inhibition of increase in serum iron at 100 mg/kg, po pre-dosed 1 hr before ferrous sulfate dosing and measured 3 hours after iron dosing; assay type: functional
[9] = tested on: Mus musculus; experiment: Prevention of hyperferremia in iron overloaded beta2-microglobulin deficient mouse assessed as reduction in serum iron level at 50 mg/kg, po measured after 3 hrs relative to control; assay type: functional, organism-based
[10] = tested on: Mus musculus; experiment: Prevention of iron overload in beta2-microglobulin deficient female mouse assessed as increase in spleen iron accumulation at 60 mg/kg, po BID pre-dosed followed by exposure to iron-containing water and same regime was repeated for 14 days relative to control; assay type: functional
[11] = tested on: Mus musculus; experiment: Prevention of iron overload in beta2-microglobulin deficient male mouse assessed as increase in spleen iron accumulation at 60 mg/kg, po BID pre-dosed followed by exposure to iron-containing water and same regime was repeated for 14 days relative to control; assay type: functional
[12] = tested on: Mus musculus; experiment: Prevention of iron overload in beta2-microglobulin deficient female mouse assessed as reduction in total liver iron accumulation at 60 mg/kg, po BID pre-dosed followed by exposure to iron-containing water and same regime was repeated for 14 days relative to control; assay type: functional; parameters: scale not given: the % may be the effect or the level left
[13] = tested on: Mus musculus; experiment: Prevention of iron overload in beta2-microglobulin deficient male mouse assessed as reduction in total liver iron accumulation at 60 mg/kg, po BID pre-dosed followed by exposure to iron-containing water and same regime was repeated for 14 days relative to control; assay type: functional; parameters: scale not given: the % may be the effect or the level left
[14] = tested on: Mus musculus; experiment: Prevention of iron overload in beta2-microglobulin deficient female mouse assessed as reduction in [58Fe] liver iron accumulation at 60 mg/kg, po BID pre-dosed followed by exposure to iron-containing water and same regime was repeated for 14 days relative to control; assay type: functional; parameters: scale not given: the % may be the effect or the level left
[15] = tested on: Mus musculus; experiment: Prevention of iron overload in beta2-microglobulin deficient male mouse assessed as reduction in [58Fe] liver iron accumulation at 60 mg/kg, po BID pre-dosed followed by exposure to iron-containing water and same regime was repeated for 14 days relative to control; assay type: functional; parameters: scale not given: the % may be the effect or the level left
[16] = tested on: Mus musculus; experiment: Correction of anemia in mouse model of transfusion-independent beta-thalassemia intermedia assessed as hemoglobin levels at 60 mg/kg, po BID for 46 days and measured at day 20 to 48 (reference value: 70 to 80 g/L); assay type: functional
[17] = tested on: Mus musculus; experiment: Disease modifying capacity in mouse model of transfusion-independent beta-thalassemia intermedia assessed as increase in blood erythrocyte counts at 20 mg/kg, po BID for 46 days relative to control; assay type: functional
[18] = tested on: Mus musculus; experiment: Disease modifying capacity in mouse model of transfusion-independent beta-thalassemia intermedia assessed as increase in blood erythrocyte counts at 60 mg/kg, po BID for 46 days relative to control; assay type: functional
[19] = tested on: Mus musculus; experiment: Disease modifying capacity in mouse model of transfusion-independent beta-thalassemia intermedia assessed as decrease in blood reticulocyte counts at 20 mg/kg, po BID for 46 days relative to control; assay type: functional; parameters: scale not given: the % may be the effect or the level left
[20] = tested on: Mus musculus; experiment: Disease modifying capacity in mouse model of transfusion-independent beta-thalassemia intermedia assessed as decrease in blood reticulocyte counts at 60 mg/kg, po BID for 46 days relative to control; assay type: functional; parameters: scale not given: the % may be the effect or the level left
[21] = tested on: Mus musculus; experiment: Disease modifying capacity in mouse model of transfusion-independent beta-thalassemia intermedia assessed as increase in hematocrit levels at 20 mg/kg, po BID for 46 days relative to control; assay type: functional
[22] = tested on: Mus musculus; experiment: Disease modifying capacity in mouse model of transfusion-independent beta-thalassemia intermedia assessed as increase in hematocrit levels at 60 mg/kg, po BID for 46 days relative to control; assay type: functional
[23] = tested on: Mus musculus; experiment: Disease modifying capacity in mouse model of transfusion-independent beta-thalassemia intermedia assessed as decrease in leukocyte counts level at 20 mg/kg, po BID for 46 days relative to control; assay type: functional; parameters: scale not given: the % may be the effect or the level left
[24] = tested on: Mus musculus; experiment: Disease modifying capacity in mouse model of transfusion-independent beta-thalassemia intermedia assessed as decrease in relative spleen weight at 60 mg/kg, po BID for 46 days relative to control; assay type: functional; parameters: scale not given: the % may be the effect or the level left
[25] = tested on: Mus musculus; experiment: Disease modifying capacity in mouse model of transfusion-independent beta-thalassemia intermedia assessed as decrease in [58Fe] spleen iron content at 20 mg/kg, po BID for 46 days relative to control; assay type: functional; parameters: scale not given: the % may be the effect or the level left
[26] = tested on: Mus musculus; experiment: Disease modifying capacity in mouse model of transfusion-independent beta-thalassemia intermedia assessed as decrease in [58Fe] spleen iron content at 60 mg/kg, po BID for 46 days relative to control; assay type: functional; parameters: scale not given: the % may be the effect or the level left
[27] = tested on: Mus musculus; experiment: Disease modifying capacity in mouse model of transfusion-independent beta-thalassemia intermedia assessed as prevention of liver [58Fe] loading at 20 mg/kg, po BID for 46 days relative to control; assay type: functional
[28] = tested on: Mus musculus; experiment: Disease modifying capacity in mouse model of transfusion-independent beta-thalassemia intermedia assessed as prevention of liver [58Fe] loading at 60 mg/kg, po BID for 46 days relative to control; assay type: functional
[29] = tested on: Mus musculus; experiment: Prevention of hyperferremia in iron overloaded beta2-microglobulin deficient female mouse assessed as reduction in serum iron level at 60 mg/kg, po measured after 1 hr relative to control; assay type: functional; parameters: scale not given: the % may be the effect or the level left
[30] = tested on: Mus musculus; experiment: Prevention of hyperferremia in iron overloaded beta2-microglobulin deficient male mouse assessed as reduction in serum iron level at 60 mg/kg, po measured after 1 hr relative to control; assay type: functional; parameters: scale not given: the % may be the effect or the level left

Cl.Cl.Cl.O=C(NCc1ncccc1F)c1csc(CCNCc2nc3ccccc3[nH]2)n1
inhibition [1]: Active | inhibition [2]: Active | Activity [3]: 10% | Activity [4]: 30% | Activity [5]: 50% | inhibition in vivo at 10 mg/kg [6]: 32% | inhibition in vivo at 30 mg/kg [7]: 53% | inhibition in vivo at 100 mg/kg [8]: 97% | Activity [9]: Active | Activity [10]: 9 - 85% | Activity [11]: 24 - 36% | Activity [12]: 66 - 67% | Activity [13]: 69 - 85% | Activity [14]: 67 - 80% | Activity [15]: 81 - 95% | Activity [16]: 13 g/L | Activity [17]: 2% | Activity [18]: 22% | Activity [19]: 19% | Activity [20]: 43% | Activity [21]: 0% | Activity [22]: 1% | Activity [23]: 0% | Activity [24]: 48% | Activity [25]: 19% | Activity [26]: 51% | Activity [27]: 20% | Activity [28]: 48% | Activity [29]: 32 - 58% | Activity [30]: 10 - 47%
